# Assay results as given in patent US20230301300A1, “HERBICIDAL COMPOSITIONS” (SYNGENTA CROP PROTECTION AG, priority 2020, published 2023).
# What was measured:
# Test in all cases: B2 Post-Emergence Efficacy - Test 2
# Format in all cases: in vivo
# [1] = system: Alopecurus myosuroides (ALOMY); settings: 15 days after application, 0-100 scale
# Outline: (§1)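 Visual phytotoxicity on a 0–100 scale, where 100 means total kill, was recorded 15 days following a single post-emergence spray. The spray was an aqueous dilution of active ingredient in IF50 with 0.2% v/v Genapol X080, applied to 12-day-old plants.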
# [2] = system: Amaranthus retroflexus (AMARE); settings: 15 days after application, 0-100 scale
# Outline: as §1
# [3] = system: Avena fatua (AVEFA); settings: 15 days after application, 0-100 scale
# Outline: as §1
# [4] = system: Beta vulgaris (BEAVA); settings: 15 days after application, 0-100 scale
# Outline: as §1
# [5] = system: Brassica napus (BRSNN); settings: 15 days after application, 0-100 scale
# Outline: as §1
# [6] = system: Bromus tectorum (BROTE); settings: 15 days after application, 0-100 scale
# Outline: as §1
# [7] = system: Chenopodium album (CHEAL); settings: 15 days after application, 0-100 scale
# Outline: as §1
# [8] = system: Echinochloa crus galli (ECHCG); settings: 15 days after application, 0=no damage, 100=total kill
# Outline: as §1
# [9] = system: Eleisine indica (ELEIN); settings: 15 days after application, 0=no damage, 100=total kill
# Outline: as §1
# [10] = system: Euphorbia hetrophylla (EPHHL); settings: 15 days after application, 0-100 scale
# Outline: as §1
# [11] = system: Glycine max (GLXMA); settings: 15 days after application; for Herbicidal activity GLXMA: 0-100 scale; for Herbicidal activity on a 0-100 scale, GLXMA: 0=no damage, 100=total kill
# Outline: as §1
# [12] = system: Ipomoea hederacea (IPOHE); settings: 15 days after application, 0-100 scale
# Outline: as §1
# [13] = system: Panicum miliaceum (PANMI); settings: 15 days after application, 0=no damage, 100=total kill
# Outline: as §1
# [14] = system: Sida spinosa (SIDSP); settings: 15 days after application, 0-100 scale
# Outline: as §1
# [15] = system: Sorghum bicolour (SORVU); settings: 15 days after application, 0=no damage, 100=total kill
# Outline: as §1
# [16] = system: Stellaria media (STEME); settings: 15 days after application, 0-100 scale
# Outline: as §1
# [17] = system: Veronica persica (VERPE); settings: 15 days after application, 0-100 scale
# Outline: as §1
# [18] = system: Xanthium strumarium (XANST); settings: 15 days after application, 0-100 scale
# Outline: as §1
smiles,measurement,setting,value
"Cc1nn(C)c(=O)c(-c2c(F)ccc(Cl)c2CCc2ccc(Cl)cc2)c1OC(=O)C(C)C [Compound 1.089, [5-[3-chloro-2-[2-(4-chlorophenyl)ethyl]-6-fluoro-phenyl]-1,3-dimethyl-6-oxo-pyridazin-4-yl] 2-methylpropanoate]",Herbicidal activity ALOMY,[1]; 15 g/Ha,20
same,Herbicidal activity ALOMY,[1]; 30 g/Ha,50
same,Herbicidal activity ALOMY,[1]; 60 g/Ha,50
same,Herbicidal activity ALOMY,[1]; 125 g/Ha,80
same,Herbicidal activity ALOMY,[1]; 250 g/Ha,80
same,Herbicidal activity ALOMY,[1]; 500 g/Ha,90
same,Herbicidal activity AMARE,[2]; 15 g/Ha,80
same,Herbicidal activity AMARE,[2]; 30 g/Ha,80
same,Herbicidal activity AMARE,[2]; 60 g/Ha,90
same,Herbicidal activity AMARE,[2]; 125 g/Ha,100
same,Herbicidal activity AMARE,[2]; 250 g/Ha,100
same,Herbicidal activity AMARE,[2]; 500 g/Ha,100
same,Herbicidal activity AVEFA,[3]; 15 g/Ha,30
same,Herbicidal activity AVEFA,[3]; 30 g/Ha,70
same,Herbicidal activity AVEFA,[3]; 60 g/Ha,70
same,Herbicidal activity AVEFA,[3]; 125 g/Ha,80
same,Herbicidal activity AVEFA,[3]; 250 g/Ha,90
same,Herbicidal activity AVEFA,[3]; 500 g/Ha,90
same,Herbicidal activity BEAVA,[4]; 15 g/Ha,90
same,Herbicidal activity BEAVA,[4]; 30 g/Ha,80
same,Herbicidal activity BEAVA,[4]; 60 g/Ha,80
same,Herbicidal activity BEAVA,[4]; 125 g/Ha,80
same,Herbicidal activity BEAVA,[4]; 250 g/Ha,90
same,Herbicidal activity BEAVA,[4]; 500 g/Ha,90
same,Herbicidal activity BRSNN,[5]; 15 g/Ha,80
same,Herbicidal activity BRSNN,[5]; 30 g/Ha,80
same,Herbicidal activity BRSNN,[5]; 60 g/Ha,90
same,Herbicidal activity BRSNN,[5]; 125 g/Ha,90
same,Herbicidal activity BRSNN,[5]; 250 g/Ha,90
same,Herbicidal activity BRSNN,[5]; 500 g/Ha,90
same,Herbicidal activity BROTE,[6]; 15 g/Ha,0
same,Herbicidal activity BROTE,[6]; 30 g/Ha,0
same,Herbicidal activity BROTE,[6]; 60 g/Ha,10
same,Herbicidal activity BROTE,[6]; 125 g/Ha,30
same,Herbicidal activity BROTE,[6]; 250 g/Ha,60
same,Herbicidal activity BROTE,[6]; 500 g/Ha,70
same,Herbicidal activity CHEAL,[7]; 15 g/Ha,80
same,Herbicidal activity CHEAL,[7]; 30 g/Ha,90
same,Herbicidal activity CHEAL,[7]; 60 g/Ha,90
same,Herbicidal activity CHEAL,[7]; 125 g/Ha,100
same,Herbicidal activity CHEAL,[7]; 250 g/Ha,100
same,Herbicidal activity CHEAL,[7]; 500 g/Ha,100
same,"Herbicidal activity on a 0-100 scale, ECHCG",[8]; 15 g/Ha,80
same,"Herbicidal activity on a 0-100 scale, ECHCG",[8]; 30 g/Ha,80
same,"Herbicidal activity on a 0-100 scale, ECHCG",[8]; 60 g/Ha,80
same,"Herbicidal activity on a 0-100 scale, ECHCG",[8]; 125 g/Ha,90
same,"Herbicidal activity on a 0-100 scale, ECHCG",[8]; 250 g/Ha,90
same,"Herbicidal activity on a 0-100 scale, ECHCG",[8]; 500 g/Ha,100
same,"Herbicidal activity on a 0-100 scale, ELEIN",[9]; 15 g/Ha,0
same,"Herbicidal activity on a 0-100 scale, ELEIN",[9]; 30 g/Ha,0
same,"Herbicidal activity on a 0-100 scale, ELEIN",[9]; 60 g/Ha,70
same,"Herbicidal activity on a 0-100 scale, ELEIN",[9]; 125 g/Ha,80
same,"Herbicidal activity on a 0-100 scale, ELEIN",[9]; 250 g/Ha,90
same,"Herbicidal activity on a 0-100 scale, ELEIN",[9]; 500 g/Ha,90
same,Herbicidal activity EPHHL,[10]; 15 g/Ha,80
same,Herbicidal activity EPHHL,[10]; 30 g/Ha,100
same,Herbicidal activity EPHHL,[10]; 60 g/Ha,100
same,Herbicidal activity EPHHL,[10]; 125 g/Ha,100
same,Herbicidal activity EPHHL,[10]; 250 g/Ha,100
same,Herbicidal activity EPHHL,[10]; 500 g/Ha,100
same,Herbicidal activity GLXMA,[11]; 30 g/Ha,70
same,"Herbicidal activity on a 0-100 scale, GLXMA",[11]; 30 g/Ha,70
same,Herbicidal activity GLXMA,[11]; 60 g/Ha,80
same,"Herbicidal activity on a 0-100 scale, GLXMA",[11]; 60 g/Ha,80
same,Herbicidal activity GLXMA,[11]; 250 g/Ha,100
same,"Herbicidal activity on a 0-100 scale, GLXMA",[11]; 250 g/Ha,100
same,Herbicidal activity GLXMA,[11]; 500 g/Ha,100
same,"Herbicidal activity on a 0-100 scale, GLXMA",[11]; 500 g/Ha,100
same,Herbicidal activity IPOHE,[12]; 15 g/Ha,100
same,Herbicidal activity IPOHE,[12]; 30 g/Ha,100
same,Herbicidal activity IPOHE,[12]; 60 g/Ha,100
same,Herbicidal activity IPOHE,[12]; 125 g/Ha,100
same,Herbicidal activity IPOHE,[12]; 250 g/Ha,100
same,Herbicidal activity IPOHE,[12]; 500 g/Ha,100
same,"Herbicidal activity on a 0-100 scale, PANMI",[13]; 15 g/Ha,0
same,"Herbicidal activity on a 0-100 scale, PANMI",[13]; 30 g/Ha,20
same,"Herbicidal activity on a 0-100 scale, PANMI",[13]; 60 g/Ha,50
same,"Herbicidal activity on a 0-100 scale, PANMI",[13]; 125 g/Ha,60
same,"Herbicidal activity on a 0-100 scale, PANMI",[13]; 250 g/Ha,80
same,"Herbicidal activity on a 0-100 scale, PANMI",[13]; 500 g/Ha,90
same,Herbicidal activity SIDSP,[14]; 30 g/Ha,80
same,Herbicidal activity SIDSP,[14]; 60 g/Ha,90
same,Herbicidal activity SIDSP,[14]; 125 g/Ha,100
same,Herbicidal activity SIDSP,[14]; 250 g/Ha,100
same,Herbicidal activity SIDSP,[14]; 500 g/Ha,100
same,"Herbicidal activity on a 0-100 scale, SORVU",[15]; 15 g/Ha,0
same,"Herbicidal activity on a 0-100 scale, SORVU",[15]; 30 g/Ha,60
same,"Herbicidal activity on a 0-100 scale, SORVU",[15]; 60 g/Ha,70
same,"Herbicidal activity on a 0-100 scale, SORVU",[15]; 125 g/Ha,90
same,"Herbicidal activity on a 0-100 scale, SORVU",[15]; 250 g/Ha,90
same,"Herbicidal activity on a 0-100 scale, SORVU",[15]; 500 g/Ha,90
same,Herbicidal activity STEME,[16]; 15 g/Ha,90
same,Herbicidal activity STEME,[16]; 30 g/Ha,90
same,Herbicidal activity STEME,[16]; 60 g/Ha,90
same,Herbicidal activity STEME,[16]; 125 g/Ha,90
same,Herbicidal activity STEME,[16]; 250 g/Ha,90
same,Herbicidal activity STEME,[16]; 500 g/Ha,90
same,Herbicidal activity VERPE,[17]; 15 g/Ha,70
same,Herbicidal activity VERPE,[17]; 30 g/Ha,80
same,Herbicidal activity VERPE,[17]; 60 g/Ha,90
same,Herbicidal activity VERPE,[17]; 125 g/Ha,90
same,Herbicidal activity VERPE,[17]; 250 g/Ha,100
same,Herbicidal activity VERPE,[17]; 500 g/Ha,100
same,Herbicidal activity XANST,[18]; 30 g/Ha,90
same,Herbicidal activity XANST,[18]; 60 g/Ha,80
same,Herbicidal activity XANST,[18]; 125 g/Ha,90
same,Herbicidal activity XANST,[18]; 250 g/Ha,90
same,Herbicidal activity XANST,[18]; 500 g/Ha,100
